# Measurements taken from publication PMC11790914, “Chemogenomics for steroid hormone receptors (NR3)” (Communications Chemistry, 2025).
# Several values for one entry are separate records, joined by “and”; a condition that tells them apart may be missing. Equal values may be shown once.
# How the values were obtained:
# HEK293T cells [1] = experiment: Cytotoxicity: apoptosis induction (caspase-3/7 DEVD fluorogenic DNA dye); details: HEK293T, 24 h, apoptotic cell count normalized to 0.1% DMSO, single replicates
# [2] = tested on: ATF6 activity in Hela ATF6 reporter cells; experiment: Endoplasmic reticulum stress assay (ATF6 Renilla luciferase reporter, tunicamycin); format: cell-based; details: single replicates n=1 to n=5
# Procedure, shortened: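 HeLa ATF6 Renilla reporter cells were pretreated 4 h with compounds in 0.1% DMSO, then stimulated with tunicamycin (100 ng/mL) for 18 h. Renilla luminescence (DualGlo) was normalized to 0.1% DMSO control; five independent experiments.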
# ABL1 = molecular target: T1, ABL1 (Homo sapiens, UniProt P00519); experiment: Liability panel screening by DSF: ABL1; format: binding; details: DSF, 20 µM, n=2
# T1 construct: made in house
# T1 sequence (P00519 whole entry, species assumed): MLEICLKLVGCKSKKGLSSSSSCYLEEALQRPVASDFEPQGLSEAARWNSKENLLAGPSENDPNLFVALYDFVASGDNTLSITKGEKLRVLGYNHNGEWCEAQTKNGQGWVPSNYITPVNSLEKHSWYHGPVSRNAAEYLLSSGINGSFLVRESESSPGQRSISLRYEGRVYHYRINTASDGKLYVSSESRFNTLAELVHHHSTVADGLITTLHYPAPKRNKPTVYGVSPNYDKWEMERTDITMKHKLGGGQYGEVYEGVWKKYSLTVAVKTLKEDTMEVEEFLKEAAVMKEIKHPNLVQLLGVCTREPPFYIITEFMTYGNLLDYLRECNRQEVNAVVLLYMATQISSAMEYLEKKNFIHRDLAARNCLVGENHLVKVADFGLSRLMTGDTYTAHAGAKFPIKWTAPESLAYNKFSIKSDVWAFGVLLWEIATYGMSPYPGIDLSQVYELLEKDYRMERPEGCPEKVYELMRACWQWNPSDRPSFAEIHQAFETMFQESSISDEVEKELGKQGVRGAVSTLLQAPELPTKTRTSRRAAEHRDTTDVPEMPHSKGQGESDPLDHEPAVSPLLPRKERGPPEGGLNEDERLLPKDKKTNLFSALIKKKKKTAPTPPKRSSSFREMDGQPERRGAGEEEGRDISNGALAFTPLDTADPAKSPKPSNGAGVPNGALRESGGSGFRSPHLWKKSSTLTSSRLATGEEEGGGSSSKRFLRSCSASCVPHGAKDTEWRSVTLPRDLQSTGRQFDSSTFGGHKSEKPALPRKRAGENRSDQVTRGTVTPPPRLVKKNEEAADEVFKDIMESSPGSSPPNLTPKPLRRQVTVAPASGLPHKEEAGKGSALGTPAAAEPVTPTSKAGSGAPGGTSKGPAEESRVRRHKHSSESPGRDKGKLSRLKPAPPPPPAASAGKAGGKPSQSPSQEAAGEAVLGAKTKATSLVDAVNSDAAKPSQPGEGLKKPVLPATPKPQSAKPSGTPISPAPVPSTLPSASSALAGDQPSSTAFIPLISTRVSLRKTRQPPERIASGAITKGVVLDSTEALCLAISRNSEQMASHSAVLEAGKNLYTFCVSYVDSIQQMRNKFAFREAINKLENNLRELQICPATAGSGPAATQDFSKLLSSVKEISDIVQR
# Procedure, shortened: (§1)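 ∆Tm in K was taken from Boltzmann-fitted unfolding inflection points, run in duplicate with a temperature ramp of 3 °C per minute up to 85 °C. Each recombinant protein (2 µM) was in HEPES 10 mM pH 7.5 and NaCl 500 mM, with SYPRO Orange dye at 1:1000.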
# CSNK1D = molecular target: T2, CSNK1D (Homo sapiens, UniProt P48730); experiment: Liability panel screening by DSF: CSNK1D; format: binding; details: DSF, 20 µM, n=2
# T2 construct: made in house
# T2 sequence (P48730 whole entry, species assumed): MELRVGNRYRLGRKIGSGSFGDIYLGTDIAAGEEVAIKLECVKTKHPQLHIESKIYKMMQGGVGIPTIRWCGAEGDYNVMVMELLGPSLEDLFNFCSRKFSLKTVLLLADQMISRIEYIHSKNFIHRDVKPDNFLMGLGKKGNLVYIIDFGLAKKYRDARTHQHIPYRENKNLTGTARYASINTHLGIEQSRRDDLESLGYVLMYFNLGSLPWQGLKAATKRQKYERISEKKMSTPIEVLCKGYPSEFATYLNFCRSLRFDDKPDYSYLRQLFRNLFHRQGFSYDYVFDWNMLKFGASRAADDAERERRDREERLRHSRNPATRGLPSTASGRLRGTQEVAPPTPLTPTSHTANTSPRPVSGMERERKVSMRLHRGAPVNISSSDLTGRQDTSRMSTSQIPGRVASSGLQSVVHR
# Procedure, shortened: as §1
# CDK2 = molecular target: T3, CDK2 (Homo sapiens, UniProt P24941); experiment: Liability panel screening by DSF: CDK2; format: binding; details: DSF, 20 µM, n=2
# T3 construct: made in house
# Procedure, shortened: as §1
# NR3A1 (ERα) = details: read-out: Potency [nM] EC50, NR3A1 (ERα); cited from earlier work
# GSK3B = molecular target: T4, GSK3B (Homo sapiens, UniProt P49841); experiment: Liability panel screening by DSF: GSK3B; format: binding; details: DSF, 20 µM, n=2
# T4 construct: made in house
# T4 sequence (P49841 whole entry, species assumed): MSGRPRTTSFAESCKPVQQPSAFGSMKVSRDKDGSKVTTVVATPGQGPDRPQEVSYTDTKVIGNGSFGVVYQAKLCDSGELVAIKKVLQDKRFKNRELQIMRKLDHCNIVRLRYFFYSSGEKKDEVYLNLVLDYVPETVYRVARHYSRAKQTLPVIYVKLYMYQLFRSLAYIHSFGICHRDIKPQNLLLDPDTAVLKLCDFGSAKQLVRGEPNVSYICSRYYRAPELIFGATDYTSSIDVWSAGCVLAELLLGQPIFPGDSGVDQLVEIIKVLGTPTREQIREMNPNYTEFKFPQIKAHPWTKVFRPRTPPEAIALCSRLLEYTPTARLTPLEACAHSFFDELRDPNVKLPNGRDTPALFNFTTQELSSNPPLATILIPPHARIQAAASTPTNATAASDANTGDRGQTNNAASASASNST
# BRPF1 = molecular target: T5, BRPF1 (Homo sapiens, UniProt P55201); experiment: Liability panel screening by DSF: BRPF1; format: binding; details: DSF, 20 µM, n=2
# T5 construct: This panel comprised ten highly ligandable kinases and bromodomains; made in house
# T5 sequence (P55201 628-732 limits assumed): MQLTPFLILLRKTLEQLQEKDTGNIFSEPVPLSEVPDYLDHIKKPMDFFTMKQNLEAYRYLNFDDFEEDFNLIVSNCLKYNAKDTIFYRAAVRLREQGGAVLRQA
# Procedure, shortened: as §1
# NR3A2 (ERβ) = details: (lit.); ref Supplementary Table 1; read-out: Potency [nM] EC50, NR3A2 (ERβ); cited from earlier work
# AURKA = molecular target: T6, AURKA (Homo sapiens, UniProt O14965); experiment: Liability panel screening by DSF: AURKA; format: binding; details: DSF, 20 µM, n=2
# T6 construct: made in house
# T6 sequence (O14965 1-403): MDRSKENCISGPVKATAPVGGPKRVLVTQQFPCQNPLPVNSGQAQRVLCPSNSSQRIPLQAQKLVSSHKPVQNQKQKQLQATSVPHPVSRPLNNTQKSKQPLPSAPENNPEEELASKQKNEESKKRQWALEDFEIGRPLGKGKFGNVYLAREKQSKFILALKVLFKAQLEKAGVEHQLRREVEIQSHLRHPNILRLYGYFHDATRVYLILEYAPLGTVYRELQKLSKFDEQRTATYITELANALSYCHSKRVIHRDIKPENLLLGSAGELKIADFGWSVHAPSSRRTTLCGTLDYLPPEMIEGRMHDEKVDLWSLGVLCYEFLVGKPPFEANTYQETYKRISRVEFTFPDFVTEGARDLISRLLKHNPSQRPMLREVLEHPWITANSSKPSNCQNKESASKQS
# Procedure, shortened: as §1
# TRIM24 = molecular target: T7, TRIM24 (Homo sapiens, UniProt O15164); experiment: Liability panel screening by DSF: TRIM24; format: binding; details: DSF, 20 µM, n=2
# T7 construct: This panel comprised ten highly ligandable kinases and bromodomains; made in house
# T7 sequence (O15164 899-1004 limits assumed): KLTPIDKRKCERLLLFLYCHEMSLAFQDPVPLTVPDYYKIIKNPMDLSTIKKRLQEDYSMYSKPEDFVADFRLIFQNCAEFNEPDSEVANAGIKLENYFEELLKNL
# Procedure, shortened: as §1
# [3] = tested on: NF-κB activity in HEK293 NF-κB reporter cells; experiment: NF-kB activity assay (GFP reporter, ionomycin/PMA); format: cell-based; details: for Mean NFκB response: n=3
# Procedure, shortened: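 HEK293 NF-κB GFP reporter cells given compound in 0.1% DMSO for 4 h, then stimulated with ionomycin 100 ng/mL plus PMA 10 ng/mL. Imaged every 90 min over 24 h; GFP-positive cell count normalized to confluence, three independent biological replicates.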
# FGFR3 = molecular target: T8, FGFR3 (Homo sapiens, UniProt P22607); experiment: Liability panel screening by DSF: FGFR3; format: binding; details: DSF, 20 µM, n=2
# T8 construct: made in house
# T8 sequence (P22607 23-806, species assumed): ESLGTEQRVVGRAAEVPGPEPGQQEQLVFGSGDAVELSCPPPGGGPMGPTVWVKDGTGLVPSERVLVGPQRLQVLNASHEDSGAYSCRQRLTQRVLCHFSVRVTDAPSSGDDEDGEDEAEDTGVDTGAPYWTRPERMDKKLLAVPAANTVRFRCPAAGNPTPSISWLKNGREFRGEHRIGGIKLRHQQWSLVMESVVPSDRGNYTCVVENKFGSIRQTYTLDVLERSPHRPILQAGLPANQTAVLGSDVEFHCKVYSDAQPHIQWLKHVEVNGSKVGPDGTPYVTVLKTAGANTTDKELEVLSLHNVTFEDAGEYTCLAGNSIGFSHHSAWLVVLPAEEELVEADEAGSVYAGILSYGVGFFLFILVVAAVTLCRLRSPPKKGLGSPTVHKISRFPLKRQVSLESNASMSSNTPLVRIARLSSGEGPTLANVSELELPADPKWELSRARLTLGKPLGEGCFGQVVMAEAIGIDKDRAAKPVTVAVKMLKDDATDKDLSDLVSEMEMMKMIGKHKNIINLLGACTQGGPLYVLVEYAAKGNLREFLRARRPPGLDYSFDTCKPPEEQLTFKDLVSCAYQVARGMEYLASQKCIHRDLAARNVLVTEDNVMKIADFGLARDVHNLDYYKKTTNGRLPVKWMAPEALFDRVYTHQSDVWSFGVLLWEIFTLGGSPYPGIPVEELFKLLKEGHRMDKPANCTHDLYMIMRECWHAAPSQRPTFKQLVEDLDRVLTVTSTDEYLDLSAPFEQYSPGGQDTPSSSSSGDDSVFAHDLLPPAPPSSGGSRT
# Procedure, shortened: as §1
# HEK293T cells [4] = experiment: Cytotoxicity: necrosis induction (red fluorescent dye for permeable plasma membranes); format: cell-based; details: 24 h, necrotic cell count normalized to 0.1% DMSO, single replicates;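 also: compounds applied in DMEM high glucose with 0.1% FCS and 0.1% DMSO, necrotic HEK293T cells counted by red staining of cells whose plasma membranes had become permeable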
# BRD4 = molecular target: T9, BRD4 (Homo sapiens, UniProt O60885); experiment: Liability panel screening by DSF: BRD4; format: binding; details: DSF, 20 µM, n=2
# T9 construct: This panel comprised ten highly ligandable kinases and bromodomains; made in house
# Procedure, shortened: as §1
# MAPK1 = molecular target: T10, MAPK1 (Homo sapiens, UniProt P28482); experiment: Liability panel screening by DSF: MAPK1; format: binding; details: DSF, 20 µM, n=2
# T10 construct: made in house
# T10 sequence (P28482 whole entry, species assumed): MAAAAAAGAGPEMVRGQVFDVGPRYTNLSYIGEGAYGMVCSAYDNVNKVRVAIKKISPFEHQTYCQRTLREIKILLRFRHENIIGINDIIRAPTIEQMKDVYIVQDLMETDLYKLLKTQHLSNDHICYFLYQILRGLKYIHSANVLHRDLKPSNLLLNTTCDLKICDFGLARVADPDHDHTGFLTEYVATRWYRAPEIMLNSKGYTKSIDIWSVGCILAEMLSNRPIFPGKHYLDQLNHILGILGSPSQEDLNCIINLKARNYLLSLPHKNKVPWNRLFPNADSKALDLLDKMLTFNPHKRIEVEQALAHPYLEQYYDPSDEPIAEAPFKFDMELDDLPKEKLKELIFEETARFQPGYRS
# Procedure, shortened: as §1
# NR3C3 (PR) = details: cited from earlier work
# NR3C4 (AR) = details: ref Supplementary Table 1, cited from earlier work
# HEK293T cells [5] = experiment: Cytotoxicity: growth-rate (change in confluence over 24 h); details: 0.3 µM, normalized to 0.1% DMSO control, single replicates (n=1...)
# NR3C1 (GR) = details: ref Supplementary Table 1, cited from earlier work
# [6] = known off-target outside the NR family at the recommended concentration; ref Supplementary Table 1 (superscript references); cited from earlier work
# HEK293T cells [7] = experiment: Cytotoxicity: metabolic activity (WST-8 / CCK-8 assay); details: 0.3 µM; HEK293T, 24 h; WST-8; normalized to 0.1% DMSO; single replicates
molecule,measurement,setting,value
Cc1c(-c2ccc(O)cc2)n(Cc2ccc(OCCN3CCCCCC3)cc2)c2ccc(O)cc12 [Bazedoxifene],Apoptosis induction [AI],HEK293T cells [1]; 1 µM,0.65 and 1.17 and 0.76 and 1.01 and 0.89 and 1.49
same,activity at 1 µM,"[2]; Homo sapiens, HeLa, 1 µM, read-out: ER stress [rel. ATF6 activity]",100%
same,ΔTm at 20 µM,ABL1; read-out: Mean ΔTM ABL1,-0.21 °C
same,ΔTm at 20 µM,CSNK1D; read-out: Mean ΔTM CSNK1D,0.42 °C
same,ΔTm at 20 µM,CDK2; read-out: Mean ΔTM CDK2,-0.64 °C
same,EC50,NR3A1 (ERα),26 ± 14 nM
same,ΔTm at 20 µM,GSK3B; read-out: Mean ΔTM GSK3B,0.0162 °C
same,ΔTm at 20 µM,BRPF1; read-out: Mean ΔTM BRPF1,-0.07 °C
same,EC50,NR3A2 (ERβ),99 ± 53 nM
same,ΔTm at 20 µM,AURKA; read-out: Mean ΔTM AURKA,0.09 °C
same,ΔTm at 20 µM,TRIM24; read-out: Mean ΔTM TRIM24,-2.05 °C
same,Mean NFκB response,"[3]; 1 µM, 1,5 h",2824.44 GFP+-cells/confluence ∙ 1000
same,Mean NFκB response,"[3]; 1 µM, 4,5 h",3791.70 GFP+-cells/confluence ∙ 1000
same,Mean NFκB response,"[3]; 1 µM, 7,5 h",7416.63 GFP+-cells/confluence ∙ 1000
same,Mean NFκB response,"[3]; 1 µM, 10,5 h",14689.03 GFP+-cells/confluence ∙ 1000
same,Mean NFκB response,"[3]; 1 µM, 13,5 h",19525.92 GFP+-cells/confluence ∙ 1000
same,Mean NFκB response,"[3]; 1 µM, 16,6 h",23266.53 GFP+-cells/confluence ∙ 1000
same,Mean NFκB response,"[3]; 1 µM, 19,5 h",26260.00 GFP+-cells/confluence ∙ 1000
same,Mean NFκB response,"[3]; 1 µM, 22,5 h",28446.67 GFP+-cells/confluence ∙ 1000
same,Mean NFκB response,"[3]; 1 µM, 3 h",3117.94 GFP+-cells/confluence ∙ 1000
same,Mean NFκB response,"[3]; 1 µM, 6 h",5066.30 GFP+-cells/confluence ∙ 1000
same,Mean NFκB response,"[3]; 1 µM, 9 h",11293.98 GFP+-cells/confluence ∙ 1000
same,Mean NFκB response,"[3]; 1 µM, 12 h",17230.27 GFP+-cells/confluence ∙ 1000
same,Mean NFκB response,"[3]; 1 µM, 15 h",21680.82 GFP+-cells/confluence ∙ 1000
same,Mean NFκB response,"[3]; 1 µM, 18 h",24611.25 GFP+-cells/confluence ∙ 1000
same,Mean NFκB response,"[3]; 1 µM, 21 h",27073.33 GFP+-cells/confluence ∙ 1000
same,Mean NFκB response,"[3]; 1 µM, 24 h",29033.33 GFP+-cells/confluence ∙ 1000
same,NF-κB activity (inflammatory response to ionomycin/PMA),"[3]; HEK293 NF-κB reporter cells, compounds at recommended concentrations, imaged over 24 h, n = 3",reducing the inflammatory response
same,ΔTm at 20 µM,FGFR3; read-out: Mean ΔTM FGFR3,-0.69 °C
same,Necrosis induction [NI],HEK293T cells [4]; 1 µM,1.13 and 0.86 and 0.78 and 1.09
same,ΔTm at 20 µM,BRD4; read-out: Mean ΔTM BRD4,0.43 °C
same,ΔTm at 20 µM,MAPK1; read-out: Mean ΔTM MAPK1,0.08 °C
Medroxyprogesterone,EC50,"NR3C3 (PR); (lit.), ref Supplementary Table 1, read-out: Potency [nM] EC50, NR3C3 (PR)",0.15 ± 0.05 nM
same,"rel. activity from literature, NR3C3 (PR): % of PGN",NR3C3 (PR); of PGN (progesterone),80 ± 7%
same,Apoptosis induction [AI],HEK293T cells [1]; 0.3 µM,0.76 and 0.77 and 1.07 and 0.74 (2×) and 0.88
same,ER stress [rel. ATF6 activity],[2]; 0.3 µM,0.98 and 0.97 and 1.05 and 0.94 and 0.96
same,Mean ΔTM ABL1,ABL1,-0.24 K
same,Mean ΔTM CSNK1D,CSNK1D,-0.11 K
same,"rel. activity from literature, NR3C4 (AR): % of DHT",NR3C4 (AR); of DHT (dihydrotestosterone),159 ± 10%
same,IC50,"NR3C4 (AR); read-out: Potency [nM] IC50, NR3C4 (AR), (lit.)",6 ± 1 nM
same,Mean ΔTM CDK2,CDK2,-0.39 K
same,Mean ΔTM GSK3B,GSK3B,-0.99 K
same,Mean ΔTM BRPF1,BRPF1,0.25 K
same,Mean ΔTM AURKA,AURKA,0.0165 K
same,Growth rate [GR],HEK293T cells [5],0.94 and 1.01 and 1.09 and 1.40 and 1.04 (2×) and 0.87 and 1.11 and 0.76 and 1.34
same,EC50,"NR3C1 (GR); (lit.), read-out: Potency [nM] EC50, NR3C1 (GR)",10 ± 1 nM
same,"rel. activity from literature, NR3C1 (GR): % of dexamethasone (DXM)",NR3C1 (GR); of dexamet./DXM,157 ± 22%
same,Other off-target at recom. conc.,[6],17β-HSD2 and 17β-HSD3 and 17β-HSD1
same,Mean ΔTM TRIM24,TRIM24,-0.75 K
same,Mean NFκB response,"[3]; 0.3 µM, 1,5 h",2817.45 GFP+-cells/confluence ∙ 1000
same,Mean NFκB response,"[3]; 0.3 µM, 4,5 h",3349.18 GFP+-cells/confluence ∙ 1000
same,Mean NFκB response,"[3]; 0.3 µM, 7,5 h",6986.39 GFP+-cells/confluence ∙ 1000
same,Mean NFκB response,"[3]; 0.3 µM, 10,5 h",17788.45 GFP+-cells/confluence ∙ 1000
same,Mean NFκB response,"[3]; 0.3 µM, 13,5 h",26308.75 GFP+-cells/confluence ∙ 1000
same,Mean NFκB response,"[3]; 0.3 µM, 16,6 h",32691.58 GFP+-cells/confluence ∙ 1000
same,Mean NFκB response,"[3]; 0.3 µM, 19,5 h",37046.67 GFP+-cells/confluence ∙ 1000
same,Mean NFκB response,"[3]; 0.3 µM, 22,5 h",41020.00 GFP+-cells/confluence ∙ 1000
same,Mean NFκB response,"[3]; 0.3 µM, 3 h",2918.53 GFP+-cells/confluence ∙ 1000
same,Mean NFκB response,"[3]; 0.3 µM, 6 h",4035.46 GFP+-cells/confluence ∙ 1000
same,Mean NFκB response,"[3]; 0.3 µM, 9 h",12242.08 GFP+-cells/confluence ∙ 1000
same,Mean NFκB response,"[3]; 0.3 µM, 12 h",21999.86 GFP+-cells/confluence ∙ 1000
same,Mean NFκB response,"[3]; 0.3 µM, 15 h",29772.36 GFP+-cells/confluence ∙ 1000
same,Mean NFκB response,"[3]; 0.3 µM, 18 h",34990.00 GFP+-cells/confluence ∙ 1000
same,Mean NFκB response,"[3]; 0.3 µM, 21 h",39166.67 GFP+-cells/confluence ∙ 1000
same,Mean NFκB response,"[3]; 0.3 µM, 24 h",41696.67 GFP+-cells/confluence ∙ 1000
same,Mean ΔTM FGFR3,FGFR3,-0.32 K
same,Necrosis induction [NI],HEK293T cells [4]; 0.3 µM,0.91 (2×) and 1.04 and 0.81
same,Metabolic activity [MA],HEK293T cells [7],0.94 and 1.01 and 0.93 and 1.08
same,Mean ΔTM BRD4,BRD4,-1.17 K
same,Mean ΔTM MAPK1,MAPK1,0.18 K
